One assay has as its system Puccinia recondita. Kind of assay: Fungicidal activity against wheat leaf rust (WLR) disease. Format: in vivo. The following applies: for C. V. (%) WLR: 50 ppm, control value, wheat leaf rust.
For another assay, the system named is Botrytis cinerae. Kind of assay: Fungicidal activity against cucumber gray mold rot (CGM) disease. Format: in vivo. The following applies: 50 ppm, control value.
Assay [1] relates to Pyricularia oryzae Carvara KA301. Format: in vivo. The settings on record: 50 ppm; control value, rice blast.
The test system of the next assay is Erysiphae graminis. The assay is described as follows: Fungicidal activity against barley powdery mildew (BPM) disease. Format: in vivo. The settings on record: 50 ppm; control value, barley powdery mildew.
The next assay concerns Phytophthora infestans. Format: in vivo. The settings on record: 50 ppm; control value, tomato late blight.
The subject of another assay is Rhizoctonia solani AG-1. The assay is described as follows: Fungicidal activity against rice sheath blight (RSB) disease. The following applies: 50 ppm, control value.

For the molecule `CON=C(C(=O)OC)c1ccccc1COc1cccc(OC(F)=Cc2ccc(OC)cc2)c1` [Compound 31], in the assay with Puccinia recondita, the “C. V. (%) WLR” value came to 93%. In addition, in the assay on Botrytis cinerae, the “C. V. (%) CGM” value is reported as 0%. Also, in assay [1], the “C. V. (%) RCB” value worked out at 93%. Moreover, the “C. V. (%) BPM” value in the assay with Erysiphae graminis is reported as 50%. In addition, the “C. V. (%) TLB” value in the assay with Phytophthora infestans worked out at 84%. The “C. V. (%) RSB” value in the assay with Rhizoctonia solani AG-1 is listed as 30%.
In the case of `CNC(=O)C(=COC)c1ccccc1COc1cccc(OC(F)=C(c2ccc(OC)cc2)C(F)(F)F)c1` [Compound 75], the “C. V. (%) WLR” value in the assay with Puccinia recondita stood at 0%. For the same molecule, the “C. V. (%) CGM” value in the assay with Botrytis cinerae is reported as 0%. Moreover, in assay [1], the “C. V. (%) RCB” value is 0%. Further, the “C. V. (%) BPM” value in the assay on Erysiphae graminis worked out at 0%. The “C. V. (%) TLB” value in the assay on Phytophthora infestans came out at 33%. For the same molecule, the “C. V. (%) RSB” value with Rhizoctonia solani AG-1 is 40%.
As for `COC=C(C(=O)OC)c1ccccc1COc1cccc(OC(F)=Cc2cc(C)c(C)cc2C)c1` [Compound 21], in the assay with Puccinia recondita (10 ppm, Table 8 (Test Example 5)), the “C. V. (%), Fungicidal Activities against WLB at 10 ppm” value is 90%. Besides, in the assay with Puccinia recondita, the “C. V. (%) WLR” value is 96%. Besides, in the assay with Botrytis cinerae, the “C. V. (%) CGM” value turned out to be 33%. Besides, the “C. V. (%) RCB” value in assay [1] came to 93%. Moreover, in the assay with Erysiphae graminis, the “C. V. (%) BPM” value amounted to 98%. Further, in the assay with Phytophthora infestans, the “C. V. (%) TLB” value is 44%. Further, the “C. V. (%) RSB” value with Rhizoctonia solani AG-1 came to 90%.
As to `CNC(=O)C(=COC)c1ccccc1COc1cccc(OC(F)=C(c2cccc(OC)c2)C(F)(F)F)c1` [Compound 72], in the assay on Puccinia recondita, the “C. V. (%) WLR” value came to 0%. Also, the “C. V. (%) CGM” value in the assay on Botrytis cinerae was 0%. In addition, the “C. V. (%) RCB” value in assay [1] is reported as 0%. Further, the “C. V. (%) BPM” value in the assay on Erysiphae graminis is on record as 0%. The “C. V. (%) TLB” value with Phytophthora infestans amounted to 33%. Besides, the “C. V. (%) RSB” value with Rhizoctonia solani AG-1 was determined as 33%.

The record behind these values is patent publication US6444850B1, “Fungicidial compounds having a fluorovinyloxphyenyl moiety and process for the preparation thereof” (priority 1997, dated 2002).
